Results: PubChem BioAssay (NCI)
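Cultured in 96-well plates, cells were exposed to test compound for 48 hours across five concentrations. GI50 = concentration required for 50% inhibition of growth. TGI marks complete inhibition of growth.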

What was measured:
Experiment in all cases: NCI-60 cell line screen, 48 h
MCF7 breast = test system: MCF7 breast
OVCAR-4 ovarian = test system: OVCAR-4 ovarian
M14 melanoma = test system: M14 melanoma
HT29 colon = test system: HT29 colon
HS 578T breast = test system: HS 578T breast
COLO 205 colon = test system: COLO 205 colon
T-47D breast = test system: T-47D breast
A549 NSCLC = test system: A549 NSCLC
SK-OV-3 ovarian = test system: SK-OV-3 ovarian
MOLT-4 leukemia = test system: MOLT-4 leukemia
RPMI-8226 leukemia = test system: RPMI-8226 leukemia
MDA-MB-231 breast = test system: MDA-MB-231 breast
A498 renal = test system: A498 renal
MDA-MB-435 = test system: MDA-MB-435
UO-31 renal = test system: UO-31 renal
NCI-H23 lung = test system: NCI-H23 lung
OVCAR-3 ovarian = test system: OVCAR-3 ovarian
TK-10 renal = test system: TK-10 renal
ACHN renal = test system: ACHN renal
HCT-116 colon = test system: HCT-116 colon
NCI-H460 lung = test system: NCI-H460 lung
BT-549 breast = test system: BT-549 breast
UACC-257 melanoma = test system: UACC-257 melanoma
786-0 renal = test system: 786-0 renal
NCI/ADR-RES ovarian = test system: NCI/ADR-RES ovarian
HCC-2998 colon = test system: HCC-2998 colon
LOX IMVI melanoma = test system: LOX IMVI melanoma
UACC-62 melanoma = test system: UACC-62 melanoma
CAKI-1 renal = test system: CAKI-1 renal
PC-3 prostate = test system: PC-3 prostate
SK-MEL-2 melanoma = test system: SK-MEL-2 melanoma
SF-295 CNS = test system: SF-295 CNS
SF-539 CNS = test system: SF-539 CNS
EKVX NSCLC = test system: EKVX NSCLC
U251 CNS = test system: U251 CNS
IGROV1 ovarian = test system: IGROV1 ovarian
RXF 393 renal = test system: RXF 393 renal
SR leukemia = test system: SR leukemia
K-562 leukemia = test system: K-562 leukemia
HCT-15 colon = test system: HCT-15 colon
KM12 colon = test system: KM12 colon
OVCAR-5 ovarian = test system: OVCAR-5 ovarian
HOP-62 NSCLC = test system: HOP-62 NSCLC
NCI-H522 lung = test system: NCI-H522 lung
SN12C renal = test system: SN12C renal
SW-620 colon = test system: SW-620 colon
DU-145 prostate = test system: DU-145 prostate
SK-MEL-5 melanoma = test system: SK-MEL-5 melanoma
MALME-3M melanoma = test system: MALME-3M melanoma
SNB-75 CNS = test system: SNB-75 CNS
SNB-19 CNS = test system: SNB-19 CNS
SK-MEL-28 melanoma = test system: SK-MEL-28 melanoma
HOP-92 NSCLC = test system: HOP-92 NSCLC
NCI-H226 lung = test system: NCI-H226 lung
CCRF-CEM leukemia = test system: CCRF-CEM leukemia
SF-268 CNS = test system: SF-268 CNS
OVCAR-8 ovarian = test system: OVCAR-8 ovarian

COc1ccc(CNCCCN2C(=O)c3ccc4c5c(ccc(c35)C2=O)C(=O)N(CCCNCc2ccc(OC)c(OC)c2OC)C4=O)c(OC)c1OC gave a GI50 (MCF7 breast) of 81.1 nM, a TGI (MCF7 breast) of 219 nM and a GI50 (OVCAR-4 ovarian) of 59.9 nM. For the same compound, the TGI (OVCAR-4 ovarian) was 127 nM, the GI50 (M14 melanoma) was 85.5 nM and the TGI (M14 melanoma) was 162 nM. For the same compound, the GI50 (HT29 colon) was 52.2 nM, the TGI (HT29 colon) was 244 nM and the GI50 (HS 578T breast) was 568 nM. The TGI (HS 578T breast) was 3.15 µM, the GI50 (COLO 205 colon) was 52.4 nM and the TGI (COLO 205 colon) was 120 nM. For the same compound, the GI50 (T-47D breast) was 98.3 nM, the TGI (T-47D breast) was 213 nM and the GI50 (A549 NSCLC) was 103 nM. The TGI (A549 NSCLC) was 231 nM, the GI50 (SK-OV-3 ovarian) was 264 nM and the TGI (SK-OV-3 ovarian) was 848 nM. It also gave a GI50 (MOLT-4 leukemia) of 121 nM, a TGI (MOLT-4 leukemia) of 291 nM and a GI50 (RPMI-8226 leukemia) of 145 nM. It also gave a TGI (RPMI-8226 leukemia) of 560 nM, a GI50 (MDA-MB-231 breast) of 125 nM and a TGI (MDA-MB-231 breast) of 398 nM. It also gave a GI50 (A498 renal) of 610 nM, a TGI (A498 renal) of 1250 nM and a GI50 (MDA-MB-435) of 92.5 nM. For the same compound, the TGI (MDA-MB-435) was 177 nM, the GI50 (UO-31 renal) was 585 nM and the TGI (UO-31 renal) was 1220 nM. It also gave a GI50 (NCI-H23 lung) of 93.6 nM, a TGI (NCI-H23 lung) of 201 nM and a GI50 (OVCAR-3 ovarian) of 88.8 nM. It also gave a TGI (OVCAR-3 ovarian) of 230 nM, a GI50 (TK-10 renal) of 98.1 nM and a TGI (TK-10 renal) of 269 nM. It also gave a GI50 (ACHN renal) of 107 nM, a TGI (ACHN renal) of 257 nM and a GI50 (HCT-116 colon) of 77.3 nM. The TGI (HCT-116 colon) was 169 nM, the GI50 (NCI-H460 lung) was 121 nM and the TGI (NCI-H460 lung) was 336 nM. For the same compound, the GI50 (BT-549 breast) was 262 nM, the TGI (BT-549 breast) was 503 nM and the GI50 (UACC-257 melanoma) was 92.1 nM. It also gave a TGI (UACC-257 melanoma) of 167 nM, a GI50 (786-0 renal) of 333 nM and a TGI (786-0 renal) of 1020 nM. For the same compound, the GI50 (NCI/ADR-RES ovarian) was 1010 nM, the TGI (NCI/ADR-RES ovarian) was 3.01 µM and the GI50 (HCC-2998 colon) was 95.7 nM. It also gave a TGI (HCC-2998 colon) of 187 nM, a GI50 (LOX IMVI melanoma) of 79.5 nM and a TGI (LOX IMVI melanoma) of 155 nM. It also gave a GI50 (UACC-62 melanoma) of 93 nM, a TGI (UACC-62 melanoma) of 182 nM and a GI50 (CAKI-1 renal) of 671 nM. For the same compound, the TGI (CAKI-1 renal) was 1950 nM, the GI50 (PC-3 prostate) was 109 nM and the TGI (PC-3 prostate) was 293 nM. The GI50 (SK-MEL-2 melanoma) was 91.1 nM, the TGI (SK-MEL-2 melanoma) was 191 nM and the GI50 (SF-295 CNS) was 119 nM. For the same compound, the TGI (SF-295 CNS) was 331 nM, the GI50 (SF-539 CNS) was 102 nM and the TGI (SF-539 CNS) was 235 nM. For the same compound, the GI50 (EKVX NSCLC) was 92.9 nM, the TGI (EKVX NSCLC) was 176 nM and the GI50 (U251 CNS) was 87.9 nM. For the same compound, the TGI (U251 CNS) was 174 nM, the GI50 (IGROV1 ovarian) was 79.5 nM and the TGI (IGROV1 ovarian) was 189 nM. For the same compound, the GI50 (RXF 393 renal) was 82.3 nM, the TGI (RXF 393 renal) was 176 nM and the GI50 (SR leukemia) was 165 nM. It also gave a TGI (SR leukemia) of 644 nM, a GI50 (K-562 leukemia) of 168 nM and a TGI (K-562 leukemia) of 515 nM. It also gave a GI50 (HCT-15 colon) of 244 nM, a TGI (HCT-15 colon) of 952 nM and a GI50 (KM12 colon) of 79.2 nM. The TGI (KM12 colon) was 168 nM, the GI50 (OVCAR-5 ovarian) was 108 nM and the TGI (OVCAR-5 ovarian) was 250 nM. It also gave a GI50 (HOP-62 NSCLC) of 171 nM, a TGI (HOP-62 NSCLC) of 729 nM and a GI50 (NCI-H522 lung) of 80.4 nM. The TGI (NCI-H522 lung) was 163 nM, the GI50 (SN12C renal) was 82.1 nM and the TGI (SN12C renal) was 157 nM. It also gave a GI50 (SW-620 colon) of 93.2 nM, a TGI (SW-620 colon) of 225 nM and a GI50 (DU-145 prostate) of 93 nM. For the same compound, the TGI (DU-145 prostate) was 185 nM, the GI50 (SK-MEL-5 melanoma) was 79.2 nM and the TGI (SK-MEL-5 melanoma) was 147 nM. It also gave a GI50 (MALME-3M melanoma) of 76.5 nM, a TGI (MALME-3M melanoma) of 151 nM and a GI50 (SNB-75 CNS) of 139 nM. For the same compound, the TGI (SNB-75 CNS) was 442 nM, the GI50 (SNB-19 CNS) was 87.7 nM and the TGI (SNB-19 CNS) was 180 nM. For the same compound, the GI50 (SK-MEL-28 melanoma) was 508 nM, the TGI (SK-MEL-28 melanoma) was 1120 nM and the GI50 (HOP-92 NSCLC) was 108 nM. It also gave a TGI (HOP-92 NSCLC) of 328 nM, a GI50 (NCI-H226 lung) of 337 nM and a TGI (NCI-H226 lung) of 1100 nM. For the same compound, the GI50 (CCRF-CEM leukemia) was 137 nM, the TGI (CCRF-CEM leukemia) was 2040 nM and the GI50 (SF-268 CNS) was 117 nM. For the same compound, the TGI (SF-268 CNS) was 353 nM, the GI50 (OVCAR-8 ovarian) was 91.4 nM and the TGI (OVCAR-8 ovarian) was 242 nM.
